Experimental data as given in article PMC6436327, “Inhibition of Cytochrome P450 Activities by Sophora flavescens Extract and Its Prenylated Flavonoids in Human Liver Microsomes” (Evidence-based Complementary and Alternative Medicine : eCAM, 2019).
Where two headings read alike, the source gives them in different places. Blank lines part the entries; values can stand above or below the molecule they belong to.

Assays:
Format in all cases: biochemical
CYP2A6 = target: T1, CYP2A6 (Homo sapiens, UniProt P11509); test: coumarin 7-hydroxylation, LC-MS/MS; conditions: human liver microsomes; no preincubation; NADPH-generating system, pH 7.4, 37°C; read-out: IC50 value / Kushenol A
T1 construct: native enzyme in pooled human liver microsomes, coumarin 7-hydroxylation probe
T1 sequence (P11509 1-494): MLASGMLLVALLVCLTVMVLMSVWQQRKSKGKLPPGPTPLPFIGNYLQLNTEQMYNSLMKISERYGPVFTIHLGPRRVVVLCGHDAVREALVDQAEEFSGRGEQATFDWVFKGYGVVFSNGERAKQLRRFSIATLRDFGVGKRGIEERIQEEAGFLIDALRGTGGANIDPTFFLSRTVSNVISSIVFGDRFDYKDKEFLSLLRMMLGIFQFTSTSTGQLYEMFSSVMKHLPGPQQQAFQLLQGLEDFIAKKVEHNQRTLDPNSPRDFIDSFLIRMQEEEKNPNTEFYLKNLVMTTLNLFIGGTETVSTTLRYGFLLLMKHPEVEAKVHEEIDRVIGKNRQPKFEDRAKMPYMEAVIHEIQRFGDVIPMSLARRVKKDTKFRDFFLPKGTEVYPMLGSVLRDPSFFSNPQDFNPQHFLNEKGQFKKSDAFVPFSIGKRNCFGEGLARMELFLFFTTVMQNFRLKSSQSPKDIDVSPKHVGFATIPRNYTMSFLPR
Excerpt: coumarin 7-hydroxylation, LC-MS/MS on CYP2A6

CYP3A4 [1] = target: T2, CYP3A4 (Homo sapiens, UniProt P08684); test: midazolam […]'-hydroxylation, LC-MS/MS; set-up: native enzyme in pooled human liver microsomes, midazolam 1'-hydroxylation probe (CYP3A5 may contribute); conditions: microsomes, read-out: IC50 value / Kushenol A
T2 sequence (P08684 2-503): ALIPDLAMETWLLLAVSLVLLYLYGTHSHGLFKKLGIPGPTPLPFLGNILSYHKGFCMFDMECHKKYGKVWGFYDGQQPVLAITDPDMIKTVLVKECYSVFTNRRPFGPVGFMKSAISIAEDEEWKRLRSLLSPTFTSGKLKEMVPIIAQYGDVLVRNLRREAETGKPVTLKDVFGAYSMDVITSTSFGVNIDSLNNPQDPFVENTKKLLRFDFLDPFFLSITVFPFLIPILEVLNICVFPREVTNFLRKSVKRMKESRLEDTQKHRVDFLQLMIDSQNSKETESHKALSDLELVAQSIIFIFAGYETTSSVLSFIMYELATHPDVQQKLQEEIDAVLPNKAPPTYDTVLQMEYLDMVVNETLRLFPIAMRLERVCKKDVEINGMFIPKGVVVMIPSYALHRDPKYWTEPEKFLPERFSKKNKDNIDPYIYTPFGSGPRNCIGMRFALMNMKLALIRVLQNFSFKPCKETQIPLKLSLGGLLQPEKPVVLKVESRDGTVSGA

CYP2C9 = target: T3, CYP2C9 (Homo sapiens, UniProt P11712); test: diclofenac hydroxylation, LC-MS/MS; conditions: microsomes
T3 construct: methods text says tolbutamide
T3 sequence (P11712 whole entry): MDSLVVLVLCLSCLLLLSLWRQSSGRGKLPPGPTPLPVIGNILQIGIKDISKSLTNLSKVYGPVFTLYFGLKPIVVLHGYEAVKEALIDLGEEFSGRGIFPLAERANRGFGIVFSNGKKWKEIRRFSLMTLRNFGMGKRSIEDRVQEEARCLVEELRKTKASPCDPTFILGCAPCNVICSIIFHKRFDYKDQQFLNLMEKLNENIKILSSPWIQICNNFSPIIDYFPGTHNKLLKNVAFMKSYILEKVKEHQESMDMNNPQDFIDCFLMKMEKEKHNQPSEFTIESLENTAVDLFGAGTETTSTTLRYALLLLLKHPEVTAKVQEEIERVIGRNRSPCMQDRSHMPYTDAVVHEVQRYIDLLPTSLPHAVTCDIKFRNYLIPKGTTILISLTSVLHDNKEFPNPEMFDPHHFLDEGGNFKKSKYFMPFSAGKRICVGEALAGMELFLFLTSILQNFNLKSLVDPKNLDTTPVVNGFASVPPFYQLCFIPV
Excerpt: diclofenac hydroxylation, LC-MS/MS on CYP2C9

CYP2D6 = target: T4, CYP2D6 (Homo sapiens, UniProt P10635); test: dextromethorphan to dextrorphan, LC-MS/MS; conditions: microsomes, read-out: IC50 value / Kushenol A
T4 construct: native enzyme in pooled human liver microsomes, dextromethorphan O-demethylation probe
T4 sequence (P10635 whole entry): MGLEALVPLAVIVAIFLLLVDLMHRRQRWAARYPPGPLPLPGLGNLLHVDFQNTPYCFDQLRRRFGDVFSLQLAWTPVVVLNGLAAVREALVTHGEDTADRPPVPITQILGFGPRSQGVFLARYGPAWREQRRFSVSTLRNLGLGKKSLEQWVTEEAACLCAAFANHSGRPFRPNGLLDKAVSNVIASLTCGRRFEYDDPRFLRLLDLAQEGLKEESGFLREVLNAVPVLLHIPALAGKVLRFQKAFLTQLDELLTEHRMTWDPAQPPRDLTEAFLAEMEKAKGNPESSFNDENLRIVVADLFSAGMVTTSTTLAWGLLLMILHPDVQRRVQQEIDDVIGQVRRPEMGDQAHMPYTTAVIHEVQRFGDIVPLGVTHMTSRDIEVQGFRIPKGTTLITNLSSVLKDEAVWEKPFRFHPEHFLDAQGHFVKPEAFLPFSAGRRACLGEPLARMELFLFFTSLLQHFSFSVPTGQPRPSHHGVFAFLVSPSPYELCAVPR
Excerpt: dextromethorphan to dextrorphan, LC-MS/MS on CYP2D6

CYP2C8 = target: T5, CYP2C8 (Homo sapiens, UniProt P10632); test: rosiglitazone hydroxylation, LC-MS/MS; conditions: microsomes
T5 construct: methods text says paclitaxel
T5 sequence (P10632 1-490): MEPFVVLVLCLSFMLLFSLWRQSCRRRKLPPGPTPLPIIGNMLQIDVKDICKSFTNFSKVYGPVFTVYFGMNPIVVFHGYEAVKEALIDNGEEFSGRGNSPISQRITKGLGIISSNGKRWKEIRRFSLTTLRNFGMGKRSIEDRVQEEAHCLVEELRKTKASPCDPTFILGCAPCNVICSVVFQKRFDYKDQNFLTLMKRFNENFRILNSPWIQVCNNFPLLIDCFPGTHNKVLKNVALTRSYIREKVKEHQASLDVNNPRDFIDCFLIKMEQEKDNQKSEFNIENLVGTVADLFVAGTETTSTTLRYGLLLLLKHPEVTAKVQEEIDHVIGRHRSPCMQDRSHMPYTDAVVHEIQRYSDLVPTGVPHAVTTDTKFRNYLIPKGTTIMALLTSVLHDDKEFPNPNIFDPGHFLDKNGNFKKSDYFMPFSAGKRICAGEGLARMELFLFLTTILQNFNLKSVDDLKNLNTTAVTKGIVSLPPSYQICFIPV
Excerpt: rosiglitazone hydroxylation, LC-MS/MS on CYP2C8

CYP2C19 = target: T6, CYP2C19 (Homo sapiens, UniProt P33261); test: S-mephenytoin 4-hydroxylation, LC-MS/MS; conditions: microsomes, read-out: IC50 value / Kushenol A
T6 construct: native enzyme in pooled human liver microsomes, S-mephenytoin 4-hydroxylation probe (methods text misprints CYP2C18)
T6 sequence (P33261 whole entry): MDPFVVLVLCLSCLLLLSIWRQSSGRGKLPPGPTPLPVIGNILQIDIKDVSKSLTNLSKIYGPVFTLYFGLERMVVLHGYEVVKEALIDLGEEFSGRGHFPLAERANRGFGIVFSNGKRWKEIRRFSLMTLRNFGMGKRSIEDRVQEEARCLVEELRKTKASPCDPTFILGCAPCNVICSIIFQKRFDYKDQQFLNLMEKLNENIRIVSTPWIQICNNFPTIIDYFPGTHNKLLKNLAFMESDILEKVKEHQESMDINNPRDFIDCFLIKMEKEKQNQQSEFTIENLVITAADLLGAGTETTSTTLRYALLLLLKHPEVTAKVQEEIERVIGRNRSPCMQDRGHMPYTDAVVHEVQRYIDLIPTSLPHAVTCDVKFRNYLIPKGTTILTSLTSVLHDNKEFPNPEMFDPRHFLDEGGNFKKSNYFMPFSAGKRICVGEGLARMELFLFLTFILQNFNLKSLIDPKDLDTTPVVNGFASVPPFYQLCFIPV
Excerpt: S-mephenytoin 4-hydroxylation, LC-MS/MS on CYP2C19

CYP1A2 = target: T7, CYP1A2 (Homo sapiens, UniProt P05177); test: phenacetin to acetaminophen, LC-MS/MS; conditions: microsomes
T7 construct: native enzyme in pooled human liver microsomes, phenacetin O-deethylation probe
T7 sequence (P05177 2-516): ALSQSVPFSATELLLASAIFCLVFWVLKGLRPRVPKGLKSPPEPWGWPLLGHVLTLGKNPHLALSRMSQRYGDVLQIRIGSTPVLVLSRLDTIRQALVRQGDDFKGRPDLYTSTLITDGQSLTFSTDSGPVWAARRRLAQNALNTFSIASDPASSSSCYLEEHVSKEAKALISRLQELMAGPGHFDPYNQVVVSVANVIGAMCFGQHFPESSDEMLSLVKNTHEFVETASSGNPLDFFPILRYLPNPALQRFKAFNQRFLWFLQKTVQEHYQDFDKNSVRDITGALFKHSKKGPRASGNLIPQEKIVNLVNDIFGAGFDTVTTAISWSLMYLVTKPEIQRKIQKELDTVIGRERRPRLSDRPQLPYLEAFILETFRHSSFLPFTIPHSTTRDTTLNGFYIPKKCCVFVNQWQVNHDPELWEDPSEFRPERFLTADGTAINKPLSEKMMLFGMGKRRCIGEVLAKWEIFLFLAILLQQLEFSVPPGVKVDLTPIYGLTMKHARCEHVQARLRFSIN
Excerpt: phenacetin to acetaminophen, LC-MS/MS on CYP1A2

CYP2B6 = target: T8, CYP2B6 (Homo sapiens, UniProt P20813); test: bupropion 6-hydroxylation, LC-MS/MS; conditions: microsomes
T8 construct: native enzyme in pooled human liver microsomes, bupropion 6-hydroxylation probe
T8 sequence (P20813 1-491): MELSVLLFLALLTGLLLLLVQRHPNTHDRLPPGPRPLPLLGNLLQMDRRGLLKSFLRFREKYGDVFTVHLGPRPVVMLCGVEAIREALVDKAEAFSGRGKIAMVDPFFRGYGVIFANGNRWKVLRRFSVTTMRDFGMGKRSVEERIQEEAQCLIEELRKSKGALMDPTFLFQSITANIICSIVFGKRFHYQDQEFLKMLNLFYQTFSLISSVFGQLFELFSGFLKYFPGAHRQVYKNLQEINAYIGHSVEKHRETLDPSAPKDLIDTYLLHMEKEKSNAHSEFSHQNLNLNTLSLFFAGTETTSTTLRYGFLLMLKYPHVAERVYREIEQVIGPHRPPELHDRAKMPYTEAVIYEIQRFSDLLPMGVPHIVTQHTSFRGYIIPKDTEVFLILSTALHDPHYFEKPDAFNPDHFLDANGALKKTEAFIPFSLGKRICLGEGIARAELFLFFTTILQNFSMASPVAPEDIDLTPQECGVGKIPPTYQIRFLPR
Excerpt: bupropion 6-hydroxylation, LC-MS/MS on CYP2B6

CYP3A4 [2] = target: T2, CYP3A4; test: time-dependent inactivation, midazolam […]'-hydroxylation, LC-MS/MS; set-up: recombinant, baculovirus-insect cell expressed, commercial (BD Gentest)
CYP3A4 [3] = target: T2, CYP3A4; test: as above; set-up: native enzyme in pooled human liver microsomes, midazolam 1'-hydroxylation probe (CYP3A5 may contribute); conditions: microsomes
[4] = read-out: IC50 value / Kushenol A
[5] = read-out: IC50 value / Kushenol C
[6] = read-out: IC50 value / Kushenol I
[7] = read-out: IC50 value / Leachianone A
[8] = read-out: IC50 value / Sophoraflavone G

IC50 (CYP2A6): > 50 µM
IC50 (CYP3A4 [1]): > 50 µM
IC50 (CYP2C9; [4]): > 50 µM
IC50 (CYP2D6): > 50 µM
IC50 (CYP2C8; [4]): > 50 µM
IC50 (CYP2C19): > 50 µM
IC50 (CYP1A2; [4]): > 50 µM
IC50 (CYP2B6; [4]): > 50 µM
Compound: C=C(C)[C@H](CC=C(C)C)Cc1c(O)cc(O)c2c1O[C@H](c1ccccc1O)CC2=O [Kushenol A]

IC50 (CYP3A4 [1]): > 50 µM
IC50 (CYP2C9; [5]): 9.3 µM
IC50 (CYP2D6): > 50 µM
IC50 (CYP2C8; [4]): > 50 µM
IC50 (CYP2C19): > 50 µM
IC50 (CYP1A2; [5]): 5 µM
IC50 (CYP2B6; [4]): > 50 µM
Compound: C=C(C)[C@H](CC=C(C)C)Cc1c(O)cc(O)c2c(=O)c(O)c(-c3ccc(O)cc3O)oc12 [Kushenol C]

IC50 (CYP2A6): > 50 µM
IC50 (CYP3A4 [1]): > 50 µM
IC50 (CYP2C9; [8]): 1.25 µM
IC50 (CYP2D6): > 50 µM
IC50 (CYP2C8; [8]): 0.32 µM
IC50 (CYP1A2; [8]): 2.26 µM
IC50 (CYP2B6; [8]): 2.42 µM
Compound: C=C(C)[C@H](CC=C(C)C)Cc1c(O)cc(O)c2c1O[C@H](c1ccc(O)cc1O)CC2=O [Sophoraflavone G]

The next lines start with the molecule.

Compound: C=C(C)[C@H](CC=C(C)C)Cc1c(O)cc(OC)c2c1O[C@H](c1ccc(O)cc1O)[C@@H](O)C2=O [Kushenol I]
KI (inactivation) (CYP3A4 [2]): 0.88 µM
IC50 (CYP3A4 [1]): > 50 µM
IC50 (CYP2C9; [6]): 7.35 µM
IC50 (CYP2D6): > 50 µM
IC50 (CYP2C8; [6]): 0.67 µM
IC50 (CYP2C19): > 50 µM
IC50 (CYP1A2; [4]): > 50 µM
KI (inactivation) (CYP3A4 [3]): 0.24 µM
IC50 (CYP2B6; [4]): > 50 µM

Compound: C=C(C)[C@H](CC=C(C)C)Cc1c(O)c(CC=C(C)C)c(O)c2c1O[C@H](c1ccc(O)cc1O)[C@@H](O)C2=O [Kushenol M]
IC50 (CYP3A4 [1]): > 50 µM
IC50 (CYP2C9; [4]): > 50 µM
IC50 (CYP2D6): > 50 µM
IC50 (CYP2C8; [4]): > 50 µM
IC50 (CYP2C19): > 50 µM
IC50 (CYP1A2; [4]): > 50 µM
IC50 (CYP2B6; [4]): > 50 µM

Compound: C=C(C)[C@H](CC=C(C)C)Cc1c(O)cc(O)c2c1O[C@H](c1ccc(O)cc1OC)CC2=O [Leachianone A]
IC50 (CYP3A4 [1]): > 50 µM
IC50 (CYP2C9; [4]): > 50 µM
IC50 (CYP2D6): > 50 µM
IC50 (CYP2C8; [7]): 0.75 µM
IC50 (CYP2C19): > 50 µM
IC50 (CYP1A2; [4]): > 50 µM
IC50 (CYP2B6; [7]): 5.74 µM
